Read-outs that look alike come from different tables or passages of the source.
Assays:
hCB2 [1] = target: T1, hCB2 (Homo sapiens, UniProt P34972); assay: Binding affinity hCB2, [3H]-CP-55,940 displacement
Description: (§1) Measurement of Affinity. The binding studies were carried out in accordance with the protocols described by El Bakali et al. (El Bakali, J.; Muccioli, G. G.; Renault, N.; Pradal, D.; Body-Malapel, M.; Djouina, M.; Hamtiaux, L.; Andrzejak, V.; Desreumaux, P.; Chavatte, P.; Lambert, D. M.; Millet, R. 4-Oxo-1,4-Dihydropyridines as Selective CB2 Cannabinoid Receptor Ligands: Structural Insights into the Design of a Novel Inverse Agonist Series. J. Med. Chem. 2010, 53, 7918-7931) but applying a small modification. Briefly, the [3H]-CP-55,940 (0.5 nM) chosen as a radioligand for the CB1 and CB2 human receptors is added to 6 μg of membranes resuspended in 550 μl (final volume) of buffer (20 mM Hepes, 5 mM MgCl2, 1 mM EDTA, 0.3% bovine serum albumin, pH 7.4). After 1 hour at 30° C., incubation is stopped and the solution is quickly filtered on Harvester, through the “Unifilter 96 (PerkinElmer)” filter previously saturated with bonding buffer (20 mM Hepes, 5 mM MgCl2, 1 mM EDTA, 0.3% bovine serum albumin, pH 7.4), and then washed 20 times with iced binding buffer without serum albumin. The radioactivity of the filters was measured using the “TopCount NXT Microplate Scintillation Counter (PerkinElmer)” after addition of 60 μl of “MicroScint 40 (PerkinElmer)” scintillation liquid. The experiments were carried out in triplicate. The non-specific binding was determined in the presence of 5 μM (R)-(+)-WIN 55,212-2 (Sigma).
(§2) Analysis of the Data. The values of Ki and EC50 were determined by non-linear regression carried out by the “GraphPad Prism 5.0” program (GraphPad Software, San Diego). The statistical analysis of the results of the [^35S]-GTPγS dosing was carried out by means of the “Student” test.

hCB1 = hCB1 (Homo sapiens, UniProt P21554); assay: Binding affinity hCB1, [3H]-CP-55,940 displacement
Description: as §1, §2

hCB2 [2] = target: T1, hCB2; assay: [35S]-GTPγS functional activity (hCB2); assay type: biochemical
Description: Dosing of [^355]-GTPγS. The studies were carried out at 30° C. in tubes containing 10 μg of protein in 0.5 ml (final volume) of buffer (20 mM Hepes, 10 mM MgCl2, 100 mM NaCl, 0.1% bovine serum albumin, pH 7.4) supplemented with 30 μm of GDP. The dosing was initiated by the addition of [^35S]-GTPγS (0.1 nM, final concentration). After 1 hour at 30° C., the incubation was stopped and the solution was quickly filtered on the “Unifilter-96 GF/B” filter and washed 20 times with iced bonding buffer. The radioactivity on the filters was counted as mentioned above. The non-specific binding was measured in the presence of 100 μm of Gpp(NH)p. The results were expressed in EC50 (nM) and Emax (%).
as §2

colitis caused by TNBS = assay: Model of colitis caused by TNBS in mice; assay type: in vivo, C57B16 male mice
Description: C57B16 male mice (n=10 per group) have free access to food and water. To cause colitis, the mice are anaesthetised for 90-120 minutes by subcutaneous administration of zylasine-ketamine (50 mg/kg) diluted in physiological serum, then receive an intrarectal administration of TNBS (40 μl, 150 mg/kg) diluted in a 1:1 mixture of 0.9% NaCl and 100% ethanol. The novel CB2 agonists are diluted in 0.5% carboxymethyl cellulose (Sigma-Aldrich, Saint Quentin Fallavier, France) for a dose administered by gavage of 0.1, 1 and 10 mg/kg body weight/day. JWH133, a known CB2 agonist (Kimball E S, Schneider C R, Wallace N H, Hornby P J. Agonists of cannabinoid receptor 1 and 2 inhibit experimental colitis induced by oil of mustard and by dextran sulfate soldium. Am. J. Physiol. Gastrointest. Liver Physiol., 2006, 291, G364-71.), is administered intraperitoneally at a dose of 0.1 mg/kg body weight/day. The animals are euthanised 5 days after the administration of TNBS. The intensity of the colitis at macroscopic and histological levels is assessed in each colon blind by 2 investigators. The scale of the macroscopic scores of the lesions ranges from 0 to 10 according to characteristics reflecting inflammation, such as hyperaemia, thickening of the intestinal wall and the extent of ulcerations. A localised colon biopsy precisely 2 cm above the anal channel is used for histological analysis following a May-Grunwald Giemsa colouring. The histological score varies between 0 and 6 and takes into account the degree of inflammatory infiltrate, the presence of erosion, ulcerations and necrosis of the mucosa, and the level of extension of the lesions in depth and on the surface reached. Two other colon biopsies are frozen and used to analyse the levels of mRNA of inflammatory cytokines by PCR in real time. The total mRNAs of the colon are extracted using the Nucleospin RNAII kit (Macherey Nagel, Hoerdt, France) and then retrotranscripts using the High-Capacity cDNA Reverse Transcription Kit (Applied Biosystems), Foster City, USA). The real-time PCR is carried out with SYBR Green (Applied Biosystems, Foster City, USA). The specific primers for TNF-alpha (TNF-alpha F and TNF-alpha R), IL-1 beta (IL1-beta F and IL1-beta R) and POLR2A (POLR2A F and POLR2A R) as reference gene were chosen using the Primer Express 2 software (Applied Biosystems, Foster City, USA). For the graphical representation of the quantitative PCR data, the values of Ct obtained for the target genes are compared with those of the reference gene, using the ΔΔCt method, that is to say: ΔΔCt=(Ct of the target gene−Ct of the reference gene) treated mouse−(Ct of the target gene−Ct of the reference gene) non-treated mouse, and the final data are derived from 2-ΔΔCt.
Compound 26 was evaluated in mice in a model of colitis caused by TNBS in accordance with a described protocol (Desreumaux, P.; Dubuquoy, L.; Nutten, S.; Peuchmaur, M.; Englaro, W.; Schoonjans, K.; Derijard, B.; Desvergne, B.; Wahli, W.; Chambon, P.; Leibowitz, M. D.; Colombel, J. F.; Auwerx, J. Attenuation of Colon Inflammation Through Activators of the Retinoid X Receptor (RXR)/Peroxisome Proliferator-Activated Receptor Gamma (PPARgamma) Heterodimer. A Basis for New Therapeutic Strtegies. J. Exp. Med. 2001, 193, 827-838). Thus compound 26 was administered orally in carboxymethyl cellulose (CMC) each day at a dose of 0.1, 1 and 10 mg/kg for seven days, and two days before the induction of colitis. A control with an administration of CMC alone was effected.

[3] = Table 2, radioligand [3H]-CP-55,940 0.5 nM, read-out: Binding affinity hCB2 Ki
[4] = Table 3, radioligand [3H]-CP-55,940 0.5 nM, read-out: Binding affinity hCB1 Ki
[5] = Table 2, radioligand [3H]-CP-55,940 0.5 nM, read-out: Binding affinity hCB1 Ki

Chain of hCB1 (P21554 whole entry): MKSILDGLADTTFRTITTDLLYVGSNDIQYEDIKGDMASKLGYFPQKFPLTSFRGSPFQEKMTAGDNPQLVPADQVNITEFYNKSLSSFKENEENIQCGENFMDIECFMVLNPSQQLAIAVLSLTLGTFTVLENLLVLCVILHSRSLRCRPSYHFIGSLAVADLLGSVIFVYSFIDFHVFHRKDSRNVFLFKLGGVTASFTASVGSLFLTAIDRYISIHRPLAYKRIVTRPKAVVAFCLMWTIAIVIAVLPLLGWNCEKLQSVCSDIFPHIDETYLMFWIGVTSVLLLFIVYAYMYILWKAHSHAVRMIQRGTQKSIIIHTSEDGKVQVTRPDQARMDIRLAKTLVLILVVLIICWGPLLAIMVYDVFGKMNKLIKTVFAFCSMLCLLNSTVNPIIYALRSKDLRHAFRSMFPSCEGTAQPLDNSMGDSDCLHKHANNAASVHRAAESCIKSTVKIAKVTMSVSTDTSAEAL
T1 sequence (P34972 whole entry): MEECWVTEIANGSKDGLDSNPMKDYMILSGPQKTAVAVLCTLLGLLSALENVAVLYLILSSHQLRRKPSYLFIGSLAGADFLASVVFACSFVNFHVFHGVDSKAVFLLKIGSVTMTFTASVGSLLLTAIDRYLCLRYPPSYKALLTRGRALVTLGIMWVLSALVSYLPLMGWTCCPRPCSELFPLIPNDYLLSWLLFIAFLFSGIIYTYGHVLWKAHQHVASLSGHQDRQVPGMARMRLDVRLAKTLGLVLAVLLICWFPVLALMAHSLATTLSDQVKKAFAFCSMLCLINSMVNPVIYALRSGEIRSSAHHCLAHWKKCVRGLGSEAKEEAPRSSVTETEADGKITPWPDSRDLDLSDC

CCCCCCn1nc2c3ccccc3n(CCCCC)cc-2c1=O [Compound 22, 2-Hexyl-5-pentyl-2H-pyrazolo[4,3-c]quinolin-3(5H)-one]
Ki (hCB2 [1]; [3]): 7.7 ± 0.3 nM
Ki (hCB1): > 3 µM

CCCCCn1cc2c(=O)n(C3CCCCC3)nc-2c2ccccc21 [Compound 16, 2-Cyclohexyl-5-pentyl-2H-pyrazolo[4,3-c]quinolin-3 (5H)-one]
Ki (hCB2 [1]; [3]): 18.8 ± 3.3 nM
EC50 (hCB2 [2]): 204 ± 41 nM
Emax (hCB2 [2]): 160 ± 3%
Ki (hCB1): > 3 µM

CCCCCn1cc2c(=O)n(CCC3CCCCC3)nc-2c2ccccc21 [Compound 25, 2-(2-Cyclohexylethyl)-5-pentyl-2H-pyrazolo[4,3-c]quinolin-3(5H)-one]
Ki (hCB2 [1]; [3]): 8 ± 0.4 nM
EC50 (hCB2 [2]): 5.4 ± 1.1 nM
Emax (hCB2 [2]): 141 ± 3%
Ki (hCB1): > 3 µM

CCCCCn1cc2c(=O)n(Cc3ccccc3)nc-2c2ccccc21 [Compound 19, 2-Benzyl-5-pentyl-2H-pyrazolo[4,3-c]quinolin-3(5H)-one]
Ki (hCB2 [1]): > 3000 nM
Ki (hCB1): > 3 µM

O=c1c2cn(CC3CCOCC3)c3ccccc3c-2nn1CC1CCCCC1 [Compound 42, 2-(Cyclohexylmethyl)-5-(tetrahydro-2H-4-pyranylmethyl)-pyrazolo[4,3-c]quinolin-3(5H)-one]
Ki (hCB2 [1]): 5.32 nM
Ki (hCB1): 0.52 µM
melting point: > 250 °C

CCCCCn1nc2c3ccccc3n(CCCCC)cc-2c1=O [Compound 21, 2,5-Dipentyl-2H-pyrazolo[4,3-c]quinolin-3(5H)-one]
Ki (hCB2 [1]; [3]): 4.3 ± 0.3 nM
Ki (hCB1): > 3 µM

CCCCCCn1cc2c(=O)n(CC3CCCCC3)nc-2c2ccccc21 [Compound 41, 2-(Cyclohexylmethyl)-5-hexyl-2H-pyrazolo[4,3-c]quinolin-3(5H)-one]
Ki (hCB2 [1]): 31.1 nM
Ki (hCB1; [4]): > 10 µM
melting point: 193 °C

CCCCCn1cc2c(=O)n(CC3CC3)nc-2c2ccccc21 [Compound 23, 2-(Cyclopropylmethyl)-5-pentyl-2H-pyrazolo[4,3-c]quinolin-3(5H)-one]
Ki (hCB2 [1]; [3]): 10.4 ± 3.1 nM
Ki (hCB1; [5]): > 3 µM

CCCCCn1cc2c(=O)n(CC34CC5CC(CC(C5)C3)C4)nc-2c2ccccc21 [Compound 26, 2-(1-Adamantylmethyl)-5-pentyl-2H-pyrazolo[4,3-c]quinolin-3(5H)-one]
Overall efficacy against colitis (colitis caused by TNBS; oral administration): effective in mice against colitis in a dose-dependent manner
Loss of body weight (colitis caused by TNBS; oral daily treatment 0.1, 1 and 10 mg/kg, five days after TNBS): attenuates in a dose-dependent manner the loss of weight
Macroscopic score (colitis caused by TNBS; oral, 10 mg/kg, scale 0 to 10, printed as 1.7 versus 1.9): 1.7
Mortality / survival rate (colitis caused by TNBS; oral, 0.1, 1 and 10 mg/kg daily, versus untreated mice (FIG. 1A)): reduction in mortality
Macroscopic score (colitis caused by TNBS; oral, 0.1, 1 and 10 mg/kg, colon after euthanasia (FIG. 2A)): reduces the macroscopic scores (FIG. 2A) in a dose-dependent manner
Attenuation of histological scores (colitis caused by TNBS; oral, histological score scale 0 to 6 (FIG. 2B)): 65%
Ki (hCB2 [1]; [3]): 0.39 ± 0.03 nM
EC50 (hCB2 [2]): 64 ± 10 nM
Emax (hCB2 [2]): 163 ± 4%

CCCCCn1cc2c(=O)n(CC3CCCCC3)nc-2c2ccccc21 [Compound 24, 2-(Cyclohexylmethyl)-5-pentyl-2H-pyrazolo[4,3-c]quinolin-3(5H)-one]
Ki (hCB2 [1]; [3]): 0.62 ± 0.03 nM
EC50 (hCB2 [2]): 14.3 ± 4 nM
Emax (hCB2 [2]): 149 ± 4%
Ki (hCB1): > 3 µM

CCCCn1cc2c(=O)n(CC3CCCCC3)nc-2c2ccccc21 [Compound 40, 2-(Cyclohexylmethyl)-5-butyl-2H-pyrazolo[4,3-c]quinolin-3(5H)-one]
Ki (hCB2 [1]): 14.8 nM
Ki (hCB1; [4]): > 10 µM
melting point: 216 °C

CCCCCn1cc2c(=O)[nH]nc-2c2ccccc21 [Compound 8, 5-Pentyl-2H-pyrazolo[4,3-c]quinolin-3(5H)-one]
Ki (hCB2 [1]; [3]): > 3000 nM
Ki (hCB1; [5]): > 3 µM

CCCCCn1cc2c(=O)n(CCC34CC5CC(CC(C5)C3)C4)nc-2c2ccccc21 [Compound 27, 2-(1-Adamantylethyl)-5-pentyl-2H-pyrazolo[4,3-c]quinolin-3 (5H)-one]
Ki (hCB2 [1]; [3]): 26.1 ± 3.8 nM

O=c1c2cn(CCCC(F)(F)F)c3ccccc3c-2nn1CC1CCCCC1 [Compound 43, 2-(Cyclohexylmethyl)-5-(4,4,4-trifluorobutyl)-2H-pyrazolo[4,3-c]quinolin-3(5H)-one]
Ki (hCB2 [1]): 6.17 nM
Ki (hCB1; [4]): 1.68 µM
melting point: 224 °C

Reference: patent publication US20170137419A1, “DERIVATIVES OF 2H-PYRAZOLO[4,3-C]QUINOLIN-3(5H)-ONE AND USE THEREOF” (UNIVERSITE DU DROIT ET DE LA SANTE LILLE 2, priority 2014, published 2017)
